From PMC10535741, “Styrylpyridinium Derivatives for Fluorescent Cell Imaging” (Pharmaceuticals, 2023)
“Also recorded” adds a separate entry of the source.

Assays:
[1] = system: C6 (rat glioma); assay: in vitro; assay type: cell-based
Text: For selected compounds, 6a–6f, we performed a determination of the cytotoxicity in a wider variety of cancer and non-cancerous cell lines (see Table S2, Supplementary Materials) in order to learn the characteristic features of selectivity or the similarity of biological properties.
The HT-1080 (human connective tissue fibrosarcoma, ATCC® CCL-121™), MH-22A (mouse hepatocarcinoma, ECACC Cat. No. 96121721), A-549 (human lung carcinoma, ATCC® CCL-185™), NIH3T3 (Swiss Albino mouse embryo fibroblast, ECACC Cat. No. 93061524), Hek293 (human embryonic kidney, ATCC® CRL-1573™), BHK-21 (Syrian hamster kidney, ATCC® CCL-10™), A-431 (human epidermoid carcinoma, ATCC® CRL-1555™), Saos-2 (human osteosarcoma, ATCC® HTB-85™), HeLa (human epitheloid cervix carcinoma, ATCC® CCL-2™), U937 (human myeloid leukaemia, ATCC® CRL-1593.2™), C6 (rat glioma, ATCC® CCL-107™), and B16-F10 (murine melanoma, ATCC® CRL-6475™) cell lines were obtained from the American Type Culture Collection (ATCC) and European Collection of Authenticated Cell Cultures (ECACC).
HT-1080, MH-22A, A-549, NIH3T3, BHK-21, A-431, HeLa, and B16-F10 cells were cultured in Dulbecco’s Modified Eagle’s Medium (DMEM) with 2 mM glutamine and 10% foetal bovine serum (FBS). Hek293 cells were cultured in Eagle’s Minimum Essential Medium with 10% foetal bovine serum. U937 cells were cultured in RPMI-1640 Medium with 2 mM glutamine and 10% foetal bovine serum. C6 cells were cultured in Ham’s F12 Medium with 2 mM glutamine and 10% foetal bovine serum. Saos-2 cells were cultured in McCoy’s 5a Medium with 2 mM glutamine and 10% foetal bovine serum. The cells were incubated at 37 °C with 5% CO2, 95% air, and complete humidity. Once ~90% confluence was reached, they were detached using 0.05% trypsin/EDTA and counted. The cells were plated at optimally determined densities for the logarithmic phase of growth. These cells were then suspended at a concentration of 4000 cells/well for HT-1080, MH-22A, A-549, NIH3T3, BHK-21, A-431, HeLa, B16-F10, Hek293, and Saos-2 cells and a concentration of 9000 cells/well for U937, C6, Hek293, and GM08402 cells and added onto a 96-well plate. For background absorption, some wells remained cell free, i.e., as a blank control. Cells were incubated for 72 h at 37 °C and 5% CO2 where they were exposed to a media containing serial dilutions of the investigated compounds (n = 3). Cell viability was measured using the 3-(4,5-dimethylthiazol-2-yl)-2,5-diphenyl-tetrazolium bromide (MTT) assay. In brief, after incubating with compounds, the culture medium was removed and fresh medium with 0.2 mg/mL MTT was added to each well of the plate. After incubation (3 h, 37 °C, 5% CO2), the medium with MTT solution was removed and replaced with 200 µL DMSO and 25 µL Sorenson’s glycine buffer (glycine 0.1 M, NaCl 0.1 M, pH: 10.5 with 0.1 M NaOH). The plate was shaken for 15 min at room temperature and the optical density (OD) of the wells was determined using a multichannel spectrophotometer (Thermo Scientific Multiskan EX) at 540 nm. The quantity of the control cells was taken in calculations as 100%. The IC50 value was calculated using the program Graph Pad Prism® 3.0. […]

[2] = in vitro; conditions: mouse
Method: In this study, we used murine bone-marrow-derived macrophages (BMDMs) to evaluate the staining potential of the 6e compound in primary immune cells. […] To assess toxicity, the BMDMs were stained with various concentrations (0.1–100 μM) of compound 6e, and after 24 h, cell viability was measured using the CCK-8 assay (Figure 5).
To determine the cytotoxicity of the SP compound 6e, the cells were stained with various concentrations of the dye (0, 0.1, 1, 5, 10, and 100 μM). Briefly, 2 × 10^4 cells were plated in a 96-well plate in 100 μL of the medium. After 24 h, the cells were washed once and a solution of compound 6e in PBS was added to the cells. The cells were incubated in a humidified 5% CO2 incubator at 37 °C for 15–20 min. Then, the dye solution was replaced with medium. […] After 24 h, the medium was replaced with 10 μL of CCK-8 reagent in 100 μL of fresh medium. The cells were incubated in a humidified 5% CO2 incubator at 37 °C for 1–4 h. The absorbance at 450 nm was measured using a microplate spectrophotometer (BioTek Instruments, Winooski, VT, USA). Cell viability was calculated as a percentage of non-treated cell absorbance. IC50 values were calculated as the concentration at which 50% of the cells were viable.

[3] = system: BMDMs; assay: Confocal microscopy, localisation of the staining; assay type: cell-based, mouse; conditions: 5 μM, confocal microscopy with WGA Alexa Fluor 488 and DAPI
Text: The stained BMDMs were studied using confocal microscopy to verify the membrane, cytoplasmic, or nuclear localisation of the staining (Figure 6). Wheat germ agglutinin (WGA) Alexa Fluor 488 (Invitrogen, W11261) was chosen for selective plasma membrane labelling and DAPI (Invitrogen, D1306) was selected for nucleus labelling. […] Furthermore, the SP compound 6e was compared with commercially available CM-DiI Dye (Invitrogen, ex/em: 553/570, Figure 6b).
For confocal microscopy, BMDMs were stained with 4 μM CellTracker™ CM-DiI dye (Cat. No. C7001; Invitrogen) or 5 μM compound 6e. Briefly, the cells were washed and then a dye solution in PBS was added to them. […] Then, the cells were stained with WGA Alexa Fluor 488 (Cat. No. W11261; Invitrogen) following the manufacturer’s instructions. Briefly, the cells were incubated with 1 μg/mL WGA solution in PBS at 37 °C. […] The fluorescence was detected as follows: a DPSS (561 nm) laser was used for excitation of compound 6e and CM-Dil, an argon (488 nm) laser was used for WGA, and a diode (405 nm) laser was used for DAPI. For fluorescence detection, HyD was used for compound 6e and CM-Dil (578 nm–636 nm) and PMT detectors were used for WGA (493 nm–739 nm) and DAPI (417 nm–498 nm), pinhole at 95 µm. The images were analysed using Leica Application Suite X 3.1.5. software (Leica Microsystems, Germany).

Row | SMILES | Cytotoxicity IC50 C6 [1] [µg/mL] | viability at 24 h, 5 µM [2] [%] | localisation of the staining in cells [3]
1 | CCCCCCCCCCCCCCCC[n+]1ccc(C=Cc2cc(OC)c(OC)c(OC)c2)cc1.[Br-] [Compound 6b] | 1.23 |  | 
2 | CCCCCCCCCCCCCCCC[n+]1ccc(C=CC=Cc2cc3c4c(c2)CCCN4CCC3)cc1.[Br-] [Compound 6e, 1-hexadecyl-4-(4-(2,3,6,7-tetrahydro-1H,5H-pyrido[3,2,1-ij]quinolin-9-yl)buta-1,3-dien-1-yl)pyridin-1-ium bromide] |  | 79.1 ± 1.2 | strong fluorescent signal localised in the cell cytoplasm, whereas the cell nuclei were not stained; also recorded: localised in the cell cytoplasm and does not stain the cell nucleus; also recorded: localises within the cell cytoplasm and does not stain the cell nucleus
